The record followed here is patent US20250303006A1, “BIOCOMPATIBLE ANTISEPTIC COMPOSITION CONTAINING 9-HYDROXYCALABAXANTHONE AND/OR RELATED XANTHONES” (UNIVERSITAT DE LES ILLES BALEARS, priority 2022, published 2025).

The test system of one series is S. aureus. It is filed as cell-based. How it is done:
S. aureus ATCC 29213 was grown from frozen stocks in Luria-Bertani (LB) broth (Scharlab), at 37° C. under aerobic conditions in an orbital shaker (180 rpm). After overnight incubation, 1 mL of bacterial suspensions were incubated with different concentrations of CHX (0.01, 0.005, 0.003, 0.001, 0.0001%) and HCX (0.003, 0.002, 0.001, 0.0002, 0.00002%) for 3 hours at 37° C. under aerobic conditions in an orbital shaker (180 rpm). Bacterial suspension without treatment served as negative control (C−). The optical density (OD) was measured at 600 nm at 0 h and 3 h to determine bacterial proliferation (PowerWave Ht). The bacterial growth rate (μ) was calculated during the exponential growth phase following the equation ln ODt−ln OD0=μ×(t−t0) (n=4). The live/Dead ratio of bacteria was determined using the LIVE/DEAD BacLight bacterial viability kit (Invitrogen), following the manufacturer's instructions. The assays were carried out in triplicate.
The bacteria S. aureus was cultured and treated with different commercial antiseptic gels and HA hydrogel with […] HCX. The gels were tested at a concentration of 5% (v/v), and the experiment was run like in experiment 7, section 7.1.
16.1. […]

In series [1] the test system is human gingival fibroblast cells. The experiment in a line: LDH cytotoxicity in immortalized human gingival fibroblasts. It is filed as cell-based. The protocol:
Cells were seeded in 48-well plates at a density of 2×10^4 cells/well. When the cells reached confluence, they were treated with different concentrations of HCX, and cytotoxicity was determined.
48 hours after seeding the iHGF cells in 48-well plates, cell inflammation was induced by means of adding 1 μg/ml of P. gingivalis lipopolysaccharide (LPS) (InvivoGen, San Diego, CA, USA) and the cells were treated with different concentrations of HCX (0.00002, 0.0002, 0.002%) in a fibroblast medium with 50 μg/ml of ascorbic acid (Sigma-Aldrich, St. Louis, MO, USA) for 48 hours. Images of the cells were taken with a bright field inverted microscope (Nikon Eclipse TS100) before treatment and 24 hours and 48 hours after treatment.
To estimate the cytotoxicity of the different concentrations of HCX, the presence of lactate dehydrogenase (LDH) in the culture media 48 h after pro-inflammatory stimulation with LPS and treatment with HCX was used as the cell death index. Following the manufacturer's instructions (Cytotoxicity Detection kit, Roche Diagnostics, Mannheim, Germany), LDH activity was determined spectrophotometrically after a 30-minute incubation at room temperature (RT) of 50 μl of culture media and 50 μl of the reaction mixture, measuring nicotinamide adenine dinucleotide (NADH) oxidation at 490 nm in the presence of pyruvate. Results were presented in relation to LDH activity of the media of the cells seeded without treatment (negative control, 0% cell death) and in relation to cells treated with 1% Triton X-100 (positive control, 100% death) using the following equation: Cytotoxicity (%)=[(expected value−negative control)/(positive control−negative control)]×100.
Different hydrogel formulations with and without 0.05% of HCX (HA, GelMa, Alginate and HPMC) and commercial gel containing 0.2% chlorhexidine and unmodified HA (Periokin Hyaluronic 1%, Laboratorios Kin, Commercial HA 0.2% CHX) were used for studies with gingival fibroblasts and S. epidermidis. Cells and bacteria without hydrogels served as negative control (C−). Gels at a concentration of 5% (v/v) were used for cell and bacterial studies.
Immortalized human gingival fibroblasts were cultured like in experiment 1 of section 1.2. The cells were treated with different hydrogel formulations with and without 0.05% of HCX (HA, GelMa, Alginate and HPMC) and commercial gel containing 0.2% chlorhexidine and unmodified HA (Periokin Hyaluronic 1%, Laboratorios Kin, commercial HA 0.2% CHX) in a fibroblast medium for 24 hours (n=4). Cell cytotoxicity was measured, like in experiment 1 of section 1.4.
16.1. […]
Immortalized human gingival fibroblasts were cultured like in experiment 1 of section 1.2. […] Cell cytotoxicity was measured, like in experiment 1 of section 1.4.

On to `CC(C)=CCc1c(O)cc(O)c2c(=O)c3cc4c(c(O)c3oc12)OC(C)(C)C=C4` [FXA, Formoxanthone A], for which, in the series on S. aureus (S. aureus 3 h together with LDH cytotoxicity in gingival fibroblasts 24 h), the “concentration with antibacterial effect without cytotoxicity” value came out at 0.001%.

`O=c1c2cc(O)c(O)cc2oc2cc(O)cc(O)c12` [NRT, norathryol, reference compound]: the “biocompatibility for the cells (LDH cytotoxicity)” value in series [1] (all concentrations tested (0.4-77 μM), 24 h) was “biocompatible”. Further, the antibacterial effect entry in the series with S. aureus (all concentrations tested (0.4-77 μM), 3 h) is on record as “none of them were antibacterial”. Turning to `COc1c(O)cc2oc3cc(O)c(CC=C(C)C)c(O)c3c(=O)c2c1CC=C(C)C` [aMG, α-Mangostin], the toxicity to cells result in series [1] (0.002% in solution) was “already toxic”.
